Test results from US20160279269A1, “METHOD AND REAGENT FOR PREPARING A DIAGNOSTIC COMPOSITION” (GE HEALTHCARE AS, priority 2013, published 2016).

Assay: Measured osmolality of ioforminol injection solution, including on dilution and after autoclaving
Format: physicochemical
Experimental: Isotonicity—A solution is isotonic with human blood plasma if no net water migration takes place over the blood cell membranes after mixing the solution with human blood. This means that the measured osmolality of the solution is equal to that of human blood plasma (approx. 290 mOsmol/kg water). This is the goal for any parenteral drug formulation, being more important if injection volumes are relatively large (typically >10 ml) and if injection rate is fast.
Ioforminol 320 mg I/ml injection contains […]. With a molar weight of 1522,13 Dalton, this would be 420.3 mM. This concentrated solution contains 699 g water per litre. Density is 1.357 kg/litre, thus the weight of one litre Ioforminol 320 mg I/ml injection is 1.357 kg. Water is therefore only about half of the weight. Theoretical estimation of osmolality would be 601.5 mOsmol/kg water given 420.3 mM ioforminol, no dissociation under dissolution and 699 g water as solvent.
Knowing that blood plasma osmolality is approx. 290 mOsmol/kg water, such a solution would be hypertonic by a factor 2 even without other components/solutes. Yet measured osmolality of the complete formulation of ioforminol 320 mg I/ml was around 290 mOsmol/kg water. When one subtracts the contribution to osmolality of the other components in the formulation (Tris, EDTA, NaCl and CaCl2), the net contribution of ioforminol was around 129 mOsmol/kg, not around 600 mOsmol/kg. This is approximately 22% of the expected theoretical osmolality if every ioforminol molecule would act as one hydrated particle.
This can be attributed to the very high concentration of ioforminol in the 320 mg I/ml solution. […] However, the percentage only increases to approximately 36% when the concentrated ioforminol composition was diluted more than fourfold. The result of this phenomenon is the linear correlation between ioforminol concentration, salt concentration and osmolality in the interval 70-330 mg I/ml Ioforminol.

Question: With `O=CN(CC(O)CN(C=O)c1c(I)c(C(=O)NCC(O)CO)c(I)c(C(=O)NCC(O)CO)c1I)c1c(I)c(C(=O)NCC(O)CO)c(I)c(C(=O)NCC(O)CO)c1I` (centres unmarked) [ioforminol, 5-[formyl-[3-[formyl-[3,5-bis(2,3-dihydroxypropylcarbamoyl)-2,4,6-triiodophenyl]amino]-2-hydroxypropyl]amino]-N,N′-bis(2,3-dihydroxypropyl)-2,4,6-triiodobenzene-1,3-dicarboxamide] as the compound, how does the “net contribution of ioforminol to osmolality” value (320 mg I/ml, contribution of Tris, EDTA, NaCl and CaCl2 subtracted) read?
Answer: The value was “around 129 mOsmol/kg”.

Question: What about the “percentage of the expected theoretical osmolality” value (320 mg I/ml, theoretical = every ioforminol molecule acts as one hydrated particle) of the same compound?
Answer: The value was “approximately 22%”.

Question: And the “percentage contribution to osmolality after autoclaving” value (121° C. for approximately 15 minutes)?
Answer: Its value is “does not change”.

Question: And the “percentage of the expected theoretical osmolality” value (after more than fourfold dilution from 320 to 70 mg I/ml)?
Answer: The value was “approximately 36%”.

Question: And the “osmolality compared to theoretical value” (aqueous solution, theoretical = one molecule acts as one hydrated particle)?
Answer: Its value is “lower”.
